Test: Solubility Test: CHCl3-insoluble residue of the product
Type: physicochemical
Conditions: 1.00 g product in 150 ml chloroform
Experimental: 1.00 g of the product are dissolved in 150 ml of chloroform and stirred at room temperature for 30 minutes. The solution is then aspirated through a membrane filter. The filter is washed with 30 ml of water and 30 ml of acetone and subsequently dried over night at 45° C. in vacuo.
1.00 g of the product were dissolved in 150 ml of chloroform and stirred for 30 minutes at room temperature. The solution was aspirated through a membrane filter. The filter was washed with 30 ml of water and 30 ml of acetone and subsequently dried over night at 45° C. in vacuo.
1.00 g of the product were dissolved in 150 ml of chloroform and stirred for 30 minutes at room temperature. The solution was aspirated through a membrane filter. The filter was washed with 30 ml of water and 30 ml of acetone, and the filter was subsequently dried over night at 45° C. in vacuo.

In the case of O=C(/C=C/c1ccccc1)/C=C/c1ccccc1.O=C(/C=C/c1ccccc1)/C=C/c1ccccc1.[Pd] [Experiment 1, Pd(dba)2], the CHCl3-insoluble ingredients (room temperature) is reported as 0% and the “residue (Solubility Test)” value (stirred 30 minutes at room temperature, membrane filter, filter dried) is reported as 0%.

— US7999126B2, “Palladium(0)-dibenzylidene acetone complexes” (priority 2007, dated 2011)
